Test results from ChEMBL document CHEMBL1150207, “Cytotoxicities of some flavonoid analogues” (1991).
Values after ≈ are worked out from the molar mass of the structure shown.

Experiments:
Type in all cases: functional
HT-29 = experiment: Cytotoxicity against human HT-29 cells after 6 days by MTT assay; conditions: HT-29, 144 h, read-out: ED50 (the source's name)
Malme-3M = experiment: Cytotoxicity against human MALME-3M cells after 6 days by MTT assay; conditions: 144 h, read-out: ED50 (the source's name)
SK-MEL = experiment: Cytotoxicity against human SK-MEL cells after 6 days by MTT assay; conditions: 144 h, read-out: ED50 (the source's name)
MCF7 = experiment: Cytotoxicity against human MCF7 cells after 6 days by MTT assay; conditions: MCF7, 144 h, read-out: ED50 (the source's name)
A549 = experiment: Cytotoxicity against human A549 cells after 6 days by MTT assay; conditions: A549, 144 h, read-out: ED50 (the source's name)

Compound	EC50 (HT-29)	EC50 (Malme-3M)	EC50 (SK-MEL)	EC50 (MCF7)	EC50 (A549)
O=C(O)c1c(-c2ccc(Br)cc2)oc2ccccc2c1=O	> 25 µg/mL	> 25 µg/mL	> 25 µg/mL	> 25 µg/mL	> 25 µg/mL
Nc1ccc(-c2cc(=O)c3ccc(O)cc3o2)cc1	4.71 µg/mL (≈ 18.6 µM)	> 25 µg/mL	6.59 µg/mL (≈ 26 µM)	> 25 µg/mL	8.87 µg/mL (≈ 35 µM)
COC(=O)c1c(-c2cc(OC)c(OC)c(OC)c2)oc2ccccc2c1=O	> 25 µg/mL	> 25 µg/mL	> 25 µg/mL	> 25 µg/mL	> 25 µg/mL
O=C(O)c1c(-c2ccc([N+](=O)[O-])cc2)oc2ccccc2c1=O	> 25 µg/mL	> 25 µg/mL	> 25 µg/mL	> 25 µg/mL	> 25 µg/mL
COC(=O)c1c(-c2ccc([N+](=O)[O-])cc2)oc2ccccc2c1=O	> 25 µg/mL	> 25 µg/mL	> 25 µg/mL	> 25 µg/mL	> 25 µg/mL
COC(=O)c1c(-c2ccc(O)cc2)oc2cc(OC)ccc2c1=O	19.2 µg/mL (≈ 58.9 µM)	20.1 µg/mL (≈ 61.6 µM)	19.6 µg/mL (≈ 59.9 µM)	> 25 µg/mL	> 25 µg/mL
COC(=O)c1c(-c2ccc([N+](=O)[O-])cc2)oc2ccc(OC)cc2c1=O	> 25 µg/mL	24.1 µg/mL (≈ 67.8 µM)	8.18 µg/mL (≈ 23 µM)	> 25 µg/mL	> 25 µg/mL
Nc1ccc(-c2cc(=O)c3cc(O)ccc3o2)cc1	2.65 µg/mL (≈ 10.5 µM)	> 25 µg/mL	2.03 µg/mL (≈ 8.02 µM)	> 25 µg/mL	2.72 µg/mL (≈ 10.7 µM)
COc1ccc(-c2oc3ccccc3c(=O)c2C(=O)O)cc1	> 25 µg/mL	> 25 µg/mL	> 25 µg/mL	> 25 µg/mL	> 25 µg/mL
COC(=O)c1c(-c2ccc(Br)cc2)oc2ccccc2c1=O	> 25 µg/mL	> 25 µg/mL	> 25 µg/mL	> 25 µg/mL	> 25 µg/mL
COC(=O)c1c(-c2ccc(OC)cc2)oc2ccccc2c1=O	> 25 µg/mL	> 25 µg/mL	> 25 µg/mL	> 25 µg/mL	> 25 µg/mL
Nc1ccc(-c2cc(=O)c3c(O)cc(O)cc3o2)cc1	3.44 µg/mL (≈ 12.8 µM)	> 25 µg/mL	3.86 µg/mL (≈ 14.3 µM)	> 25 µg/mL	2.84 µg/mL (≈ 10.5 µM)
COC(=O)c1c(-c2ccc(O)cc2)oc2ccc(OC)cc2c1=O	> 25 µg/mL	> 25 µg/mL	18.7 µg/mL (≈ 57.3 µM)	> 25 µg/mL	> 25 µg/mL
COc1ccc(-c2oc3ccccc3c(=O)c2C(=O)O)cc1OC	> 25 µg/mL	> 25 µg/mL	> 25 µg/mL	> 25 µg/mL	> 25 µg/mL
COc1ccc2oc(-c3ccc([N+](=O)[O-])cc3)c(C(=O)O)c(=O)c2c1	> 25 µg/mL	> 25 µg/mL	> 25 µg/mL	15.8 µg/mL (≈ 46.4 µM)	> 25 µg/mL
COC(=O)c1c(-c2ccc(OCc3ccccc3)cc2)oc2ccc(OC)cc2c1=O	15.6 µg/mL (≈ 37.4 µM)	> 25 µg/mL	20.9 µg/mL (≈ 50.1 µM)	> 25 µg/mL	22.1 µg/mL (≈ 53 µM)
O=c1cc(-c2ccc([N+](=O)[O-])cc2)oc2cc(O)ccc12	6.95 µg/mL (≈ 24.5 µM)	> 25 µg/mL	> 25 µg/mL	> 25 µg/mL	21.8 µg/mL (≈ 76.9 µM)
COc1cc(-c2oc3ccccc3c(=O)c2C(=O)O)cc(OC)c1OC	> 25 µg/mL	> 25 µg/mL	> 25 µg/mL	> 25 µg/mL	> 25 µg/mL
O=c1cc(-c2ccc([N+](=O)[O-])cc2)oc2ccc(O)cc12	> 25 µg/mL	> 25 µg/mL	21 µg/mL (≈ 74.2 µM)	> 25 µg/mL	5.07 µg/mL (≈ 17.9 µM)
COC(=O)c1c(-c2ccc(OCc3ccccc3)cc2)oc2ccccc2c1=O	> 25 µg/mL	> 25 µg/mL	> 25 µg/mL	> 25 µg/mL	> 25 µg/mL
COc1cc(OC)cc(-c2oc3ccccc3c(=O)c2C(=O)O)c1	> 25 µg/mL	> 25 µg/mL	> 25 µg/mL	> 25 µg/mL	> 25 µg/mL
COC(=O)c1c(-c2ccc(NC(C)=O)cc2)oc2cc(OC)ccc2c1=O	8.21 µg/mL (≈ 22.3 µM)	9.26 µg/mL (≈ 25.2 µM)	15.9 µg/mL (≈ 43.4 µM)	9.19 µg/mL (≈ 25 µM)	9.76 µg/mL (≈ 26.6 µM)
COC(=O)c1c(-c2ccc(OC)c(OC)c2)oc2ccccc2c1=O	> 25 µg/mL	> 25 µg/mL	> 25 µg/mL	> 25 µg/mL	> 25 µg/mL
COC(=O)c1c(-c2ccc(O)cc2)oc2ccccc2c1=O	> 25 µg/mL	> 25 µg/mL	> 25 µg/mL	> 25 µg/mL	> 25 µg/mL
COC(=O)c1c(-c2cc(OC)cc(OC)c2)oc2ccccc2c1=O	6.99 µg/mL (≈ 20.5 µM)	> 25 µg/mL	> 25 µg/mL	> 25 µg/mL	> 25 µg/mL
O=c1cc(-c2ccc([N+](=O)[O-])cc2)oc2cc(O)cc(O)c12	3.34 µg/mL (≈ 11.2 µM)	> 25 µg/mL	4.87 µg/mL (≈ 16.3 µM)	6.9 µg/mL (≈ 23.1 µM)	4.19 µg/mL (≈ 14 µM)

Compound	EC50 (HT-29)	EC50 (Malme-3M)	EC50 (SK-MEL)	EC50 (MCF7)	EC50 (A549)
COC(=O)c1c(-c2ccc([N+](=O)[O-])cc2)oc2cc(OC)ccc2c1=O	> 25 µg/mL	1.12 µg/mL (≈ 3.15 µM)	2.84 µg/mL (≈ 7.99 µM)	> 25 µg/mL	> 25 µg/mL
COC(=O)c1c(-c2ccc(OCc3ccccc3)cc2)oc2cc(OC)ccc2c1=O	5.42 µg/mL (≈ 13 µM)	> 25 µg/mL	> 25 µg/mL	5.16 µg/mL (≈ 12.4 µM)	20.4 µg/mL (≈ 49.1 µM)
COc1ccc2c(=O)c(C(=O)O)c(-c3ccc([N+](=O)[O-])cc3)oc2c1	> 25 µg/mL	> 25 µg/mL	> 25 µg/mL	> 25 µg/mL	> 25 µg/mL
COC(=O)c1c(-c2ccc(N)cc2)oc2ccccc2c1=O	> 25 µg/mL	> 25 µg/mL	> 25 µg/mL	> 25 µg/mL	> 25 µg/mL
O=c1cc(-c2ccc([N+](=O)[O-])cc2)oc2c(O)c(O)ccc12	3.46 µg/mL (≈ 11.6 µM)	3.61 µg/mL (≈ 12.1 µM)	3.29 µg/mL (≈ 11 µM)	4.69 µg/mL (≈ 15.7 µM)	2.56 µg/mL (≈ 8.56 µM)
COc1cc(-c2cc(=O)c3ccc(O)c(O)c3o2)cc(OC)c1OC	3.66 µg/mL (≈ 10.6 µM)	> 25 µg/mL	> 25 µg/mL	1.11 µg/mL (≈ 3.22 µM)	5.27 µg/mL (≈ 15.3 µM)
COc1cc(-c2cc(=O)c3c(O)cccc3o2)cc(OC)c1O	> 25 µg/mL	> 25 µg/mL	> 25 µg/mL	0.51 µg/mL (≈ 1.62 µM)	0.74 µg/mL (≈ 2.35 µM)
CC(C)(C)[Si](C)(C)Oc1ccc(-c2cc(=O)c3ccc(O)cc3o2)cc1	3.61 µg/mL (≈ 9.8 µM)	> 10 µg/mL	5.64 µg/mL (≈ 15.3 µM)	4.66 µg/mL (≈ 12.6 µM)	6.45 µg/mL (≈ 17.5 µM)
COc1cc(-c2cc(=O)c3ccc(O)cc3o2)cc(OC)c1OC	> 25 µg/mL	> 25 µg/mL	> 25 µg/mL	> 25 µg/mL	> 25 µg/mL
CC(=O)Nc1ccc(-c2cc(=O)c3ccc(OC(C)=O)cc3o2)cc1	19.8 µg/mL (≈ 58.7 µM)	> 25 µg/mL	16.9 µg/mL (≈ 50.1 µM)	19.2 µg/mL (≈ 56.9 µM)	20.5 µg/mL (≈ 60.9 µM)
COc1cc(-c2cc(=O)c3ccc(O)cc3o2)cc(OC)c1O[Si](C)(C)C(C)(C)C	1 µg/mL (≈ 2.33 µM)	> 25 µg/mL	> 25 µg/mL	4.47 µg/mL (≈ 10.4 µM)	5.3 µg/mL (≈ 12.4 µM)
COc1cc(-c2cc(=O)c3cc(O)ccc3o2)cc(OC)c1O	> 25 µg/mL	> 25 µg/mL	5.68 µg/mL (≈ 18.1 µM)	> 25 µg/mL	> 25 µg/mL
COc1cc(-c2cc(=O)c3ccc(O)cc3o2)cc(OC)c1O	6.5 µg/mL (≈ 20.7 µM)	> 25 µg/mL	> 25 µg/mL	> 25 µg/mL	> 25 µg/mL
COc1ccc2oc(-c3cc(OC)c(OC)c(OC)c3)cc(=O)c2c1	> 25 µg/mL	> 25 µg/mL	> 25 µg/mL	> 25 µg/mL	> 25 µg/mL
COc1cc(-c2cc(=O)c3ccc(OC(C)=O)cc3o2)cc(OC)c1O	> 25 µg/mL	> 25 µg/mL	> 25 µg/mL	> 25 µg/mL	> 25 µg/mL
COc1cc(-c2cc(=O)c3ccc(OC(C)=O)c(OC(C)=O)c3o2)cc(OC)c1O[Si](C)(C)C(C)(C)C	> 25 µg/mL	0.31 µg/mL (≈ 0.586 µM)	0.14 µg/mL (≈ 0.265 µM)	> 25 µg/mL	> 25 µg/mL
CC(=O)Nc1ccc(-c2cc(=O)c3c(OC(C)=O)cc(OC(C)=O)cc3o2)cc1	17.4 µg/mL (≈ 44 µM)	> 25 µg/mL	14 µg/mL (≈ 35.3 µM)	1.78 µg/mL (≈ 4.5 µM)	22 µg/mL (≈ 55.6 µM)
COc1cc(-c2cc(=O)c3cc(O)ccc3o2)cc(OC)c1O[Si](C)(C)C(C)(C)C	2.63 µg/mL (≈ 6.14 µM)	5.3 µg/mL (≈ 12.4 µM)	2.95 µg/mL (≈ 6.88 µM)	2.01 µg/mL (≈ 4.69 µM)	3.19 µg/mL (≈ 7.44 µM)
COc1cc(-c2cc(=O)c3ccc(O)c(O)c3o2)cc(OC)c1O	5.12 µg/mL (≈ 15.5 µM)	> 25 µg/mL	6.33 µg/mL (≈ 19.2 µM)	> 25 µg/mL	> 25 µg/mL
O=c1cc(-c2cccc(O)c2)oc2ccc(O)cc12	> 25 µg/mL	> 25 µg/mL	> 25 µg/mL	> 25 µg/mL	> 25 µg/mL
COc1cc(-c2cc(=O)c3ccc(O)c(O)c3o2)cc(OC)c1O[Si](C)(C)C(C)(C)C	0.34 µg/mL (≈ 0.765 µM)	0.2 µg/mL (≈ 0.45 µM)	0.11 µg/mL (≈ 0.247 µM)	0.31 µg/mL (≈ 0.697 µM)	3.31 µg/mL (≈ 7.45 µM)
O=c1cc(-c2cccc(O)c2)oc2cccc(O)c12	3.47 µg/mL (≈ 13.6 µM)	> 10 µg/mL	3.09 µg/mL (≈ 12.2 µM)	6.93 µg/mL (≈ 27.3 µM)	3.24 µg/mL (≈ 12.7 µM)
COc1cc(-c2cc(=O)c3cc(O)ccc3o2)cc(OC)c1OC	7.85 µg/mL (≈ 23.9 µM)	> 25 µg/mL	5.87 µg/mL (≈ 17.9 µM)	> 25 µg/mL	9.82 µg/mL (≈ 29.9 µM)
COc1cc(-c2cc(=O)c3ccc(OC(C)=O)cc3o2)cc(OC)c1O[Si](C)(C)C(C)(C)C	1.94 µg/mL (≈ 4.12 µM)	2.95 µg/mL (≈ 6.27 µM)	0.8 µg/mL (≈ 1.7 µM)	4.19 µg/mL (≈ 8.9 µM)	2.9 µg/mL (≈ 6.16 µM)
COc1ccc2c(=O)cc(-c3cc(OC)c(OC)c(OC)c3)oc2c1	> 25 µg/mL	> 25 µg/mL	> 25 µg/mL	> 25 µg/mL	> 25 µg/mL
COc1ccc2oc(-c3ccc(O)cc3)c(C(=O)O)c(=O)c2c1	> 25 µg/mL	> 25 µg/mL	> 25 µg/mL	> 25 µg/mL	> 25 µg/mL
